Values of other authors, collected in US4610818A, “N-acyl derivatives of dipeptides, their preparation and their use in the therapy of disorders, and agents for this purpose” (BASF Aktiengesellschaft, priority 1982, dated 1986).

Tested on: tremor, rigor and akinesia
Settings: Parkinson patients, MIF alone or in combination with L-dopa

Substance: L-Pro-L-Leu-Gly-NH2 [MIF]
- effect on tremor, rigor and akinesia: advantageous effect
